In US20230150978A1, “QUINAZOLINONE DERIVATIVES AND USES THEREOF FOR TREATING A CANCER” (ENYO PHARMA, priority 2020, published 2023):

Columns and labels:
HMGB1 = HMGB1 release screen, Nano-Glo HiBiT extracellular detection; type: cell-based; settings: Homo sapiens, MDA-MB-231, MDA-MB-231 cells stably expressing HMGB1-HiBiT; extracellular luminescence
Procedure: Construction of pBiT3.1-HMGB1 Plasmid
(§1) HMGB1 derived from pCMV6-AC-GFP plasmid (ref. RG205918, Origene) was amplified by PCR using the following set of primers: Seq ID No 1: forward, 5′-[…]-3′; Seq ID No 2: reverse, 5′-[…]-3′. The PCR fragment was subsequently digested by EcoRI and XhoI (R3101S and R0146S respectively, New England Biolabs) and inserted between the EcoRI and XhoI sites in the plasmid pBiT3.1-C(ref. N237A, Promega). The resulting plasmid (pBiT3.1-HMGB1) was grown in NEB10-beta competent E. coli (ref. C3019I, New England Biolabs) and purified using the NucleoBond Xtra Midi Kit (ref. 740410, Macherey-Nagel).
Construction of HMGB1 Reporter Cell Line
(§2) pBiT3.1-HMGB1 was transfected in MDA-MB-231 cells (ref. ATCC HTB-2) using Lipofectamine 2000 reagent (ref. 11668, Invitrogen). Transfected cells were selected for blasticidin resistance (15 μg/ml, ref. Al 113903 Gibco) in medium containing DMEM 1× (ref. 1995065, Gibco) with 1% penicillin and streptomycin, and 10% fetal bovine serum.
Screen for HMGB1-Releasing Drugs
(§3) MDA-MB-231 cells stably expressing HMGB1-HiBiT (10^4 cells/well) were seeded into white 96-well plates (ref.3917, Corning) and allowed to recover for 24h. […] Mitoxantrone dihydrochloride (ref. M6545, Sigma-Aldrich) was used as a positive control. Extracellular translocation of HMGB1 was measured using the Nano-Glo HiBiT extracellular detection system (ref. N2422, Promega). Nano-Glo HiBiT Extracellular Reagent was prepared in advance, added to the well and incubated 10 min. Luminescence of the extracellular HMGB1-HiBiT was quantified using the Spark 20M spectrofluorimeter (TECAN)

Calreticulin = Calreticulin release (ER to plasma membrane translocation) screen, Nano-Glo HiBiT extracellular detection; type: cell-based; settings: Homo sapiens, MDA-MB-231, MDA-MB-231 cells stably expressing Calreticulin-HiBiT; extracellular luminescence; read-out: CalR EC50
Procedure: as §1, with “Construction of pBiT3.1-Calreticulin Plasmid Calreticulin” for “HMGB1”, “pCMV6-AC” for “pCMV6-AC-GFP”, “SC320287,” for “RG205918,”, “3:” for “1:”, “4:” for “2:”, “(pBiT3.1-Calreticulin)” for “(pBiT3.1-HMGB1)”
Construction of Calreticulin Reporter Cell Line
as §2, with “pBiT3.1-Calreticulin” for “pBiT3.1-HMGB1”
Screen for Calreticulin-ER to Plasma Membrane Translocating Drugs
as §3, with “Calreticulin-HiBiT” for “HMGB1-HiBiT”, “Calreticulin” for “HMGB1”, “min.” for “min. Luminescence of the extracellular HMGB1-HiBiT was quantified using the Spark 20M spectrofluorimeter (TECAN)”
Luminescence of the extracellular Calreticulin-HiBiT was quantified using the Spark 20M spectrofluorimeter (TECAN).

EC50 (HMGB1) [µM] | melting point [°C] | EC50 (Calreticulin) [µM] | SMILES
0.429 | 191 to 206 | 0.339 | COc1ccc2nc(CN3CCCCc4ccccc43)[nH]c(=O)c2c1 [Ex. 22, 6-methoxy-2-(2,3,4,5-tetrahydro-1-benzazepin-1-ylmethyl)-3H-quinazolin-4-one]
0.263 | 192 to 213 | 0.191 | COc1ccc2nc(CN3CC(C)c4ccccc43)[nH]c(=O)c2c1 (centres unmarked) [Ex. #3, 6-methoxy-2-[(3-methylindolin-1-yl)methyl]-3H-quinazolin-4-one]
0.217 | 192 to 208 | 0.254 | COc1ccc2nc(CN3CC(C(C)C)c4ccccc43)[nH]c(=O)c2c1 (centres unmarked) [Ex. #6, 2-[(3-isopropylindolin-1-yl)methyl]-6-methoxy-3H-quinazolin-4-one]
0.425 | 229 to 235 | 0.323 | COc1ccc2nc(CN3CCc4ccc(F)cc43)[nH]c(=O)c2c1 [Ex. #7, 2-[(6-fluoroindolin-1-yl)methyl]-6-methoxy-3H-quinazolin-4-one]
8.36 | 208 to 227 | 5.66 | COc1ccc2nc(CN3CCc4cccc(F)c43)[nH]c(=O)c2c1 [Ex. #8, 2-[(7-fluoroindolin-1-yl)methyl]-6-methoxy-3H-quinazolin-4-one]
11.7 | 190 to 209 | 12.8 | COc1ccc2nc(CN3CC(CO)c4ccccc43)[nH]c(=O)c2c1 (centres unmarked) [Ex. #9, 2-[[3-(hydroxymethyl)indolin-1-yl]methyl]-6-methoxy-3H-quinazolin-4-one]
0.109 | 222 to 236 | 0.102 | COc1ccc2nc(CN3CCCc4cccc(F)c43)[nH]c(=O)c2c1 [Ex. #11, 2-[(8-fluoro-3,4-dihydro-2H-quinolin-1-yl)methyl]-6-methoxy-3H-quinazolin-4-one]
0.752 | 169 to 183 | 1.14 | COc1ccc2nc(CN3CCCc4cccc(OC)c43)[nH]c(=O)c2c1 [Ex. #13, 6-methoxy-2-[(8-methoxy-3,4-dihydro-2H-quinolin-1-yl)methyl]-3H-quinazolin-4-one]
2.66 | 197 to 218 | 0.49 | COc1ccc2nc(CN3CCc4c(C#N)cccc4C3)[nH]c(=O)c2c1 [Ex. #16, 2-[(6-methoxy-4-oxo-3H-quinazolin-2-yl)methyl]-3,4-dihydro-1H-isoquinoline-5-carbonitrile]
6.06 | 204 to 218 | 0.54 | COc1ccc2nc(CN3CCc4c(cccc4OC)C3)[nH]c(=O)c2c1 [Ex. #17, 6-methoxy-2-[(5-methoxy-3,4-dihydro-1H-isoquinolin-2-yl)methyl]-3H-quinazolin-4-one]
3.16 | 200 to 223 | 1.16 | CC1CN(Cc2nc3ccc(Cl)cc3c(=O)[nH]2)c2ccccc21 (centres unmarked) [Ex. #37, 6-chloro-2-[(3-methylindolin-1-yl)methyl]-3H-quinazolin-4-one]
1.26 | 163 to 176 | 0.941 | CC1(C)CN(Cc2nc3ccc(Cl)cc3c(=O)[nH]2)c2ccccc21 [Ex. #40, 6-chloro-2-[(3,3-dimethylindolin-1-yl)methyl]-3H-quinazolin-4-one]
3.06 | 183 to 194 | 1.76 | COc1cccc2c1N(Cc1nc3ccc(Cl)cc3c(=O)[nH]1)CCC2 [Ex. #54, 6-chloro-2-[(8-methoxy-3,4-dihydro-2H-quinolin-1-yl)methyl]-3H-quinazolin-4-one]
4.81 | 205 to 212 | 0.524 | COc1cccc2c1CCN(Cc1nc3ccc(Cl)cc3c(=O)[nH]1)C2 [Ex. #58, 6-chloro-2-[(5-methoxy-3,4-dihydro-1H-isoquinolin-2-yl)methyl]-3H-quinazolin-4-one]
0.15 | 194 to 209 | 0.15 | COc1cc2c(=O)[nH]c(CN3CC(C)(C)c4ccccc43)nc2cc1F [Ex. #77, 2-[(3,3-dimethylindolin-1-yl)methyl]-7-fluoro-6-methoxy-3H-quinazolin-4-one]
3.25 | 215 to 230 | 2.45 | COc1cc2c(=O)[nH]c(CN3CCc4ccccc43)nc2cn1 [Ex. #78, 2-(indolin-1-ylmethyl)-6-methoxy-3H-pyrido[3,4-d]pyrimidin-4-one]
0.801 | 145 to 167 | 0.796 | COc1cc2c(=O)[nH]c(CN3CC(C)(C)c4ccccc43)nc2cn1 [Ex. #79, 2-[(3,3-dimethylindolin-1-yl)methyl]-6-methoxy-3H-pyrido[3,4-d]pyrimidin-4-one]
0.225 | 200 to 223 | 0.22 | CN(C)c1cc2c(=O)[nH]c(CN3CCc4ccccc43)nc2cc1F [Ex. #80, 6-(dimethylamino)-7-fluoro-2-(indolin-1-ylmethyl)-3H-quinazolin-4-one]
0.41 | 168 to 185 | 0.08 | CC(C)c1ccc2nc(CN3CCc4ccccc43)[nH]c(=O)c2c1 [Ex. #81, 2-(indolin-1-ylmethyl)-6-isopropyl-3H-quinazolin-4-one]
4.66 | 184 to 196 | 7.56 | O=c1[nH]c(CN2CCc3ccccc32)nc2ccc(F)cc12 [Ex. #88, 6-fluoro-2-(indolin-1-ylmethyl)-3H-quinazolin-4-one]
8.76 | 167 to 181 | 5.49 | CC(C)(C)OC(=O)NCCCCOc1ccc2nc(CN3CCc4ccccc43)[nH]c(=O)c2c1 [Ex. #90, tert-butyl N-[4-[[2-(indolin-1-ylmethyl)-4-oxo-3H-quinazolin-6-yl]oxy]butyl]carbamate]
– | 222 to 232 | 8.06 | COc1ccc2nc(CN3CCc4c(F)cccc43)[nH]c(=O)c2c1 [Ex. #126, 2-[(4-fluoroindolin-1-yl)methyl]-6-methoxy-3H-quinazolin-4-one]
13.3 | – | 10.5 | CN1CCN(Cc2nc3ccc(Cl)cc3c(=O)[nH]2)c2ccccc21 [Ex. #128, 6-chloro-2-[(4-methyl-2,3-dihydroquinoxalin-1-yl)methyl]-3H-quinazolin-4-one]
13.3 | – | 10.7 | COc1ccc2nc(CN3CC(CCO)c4ccccc43)[nH]c(=O)c2c1 (centres unmarked) [Ex. #129, 2-[[3-(2-hydroxyethyl)indolin-1-yl]methyl]-6-methoxy-3H-quinazolin-4-one]
14.5 | – | 12.1 | COc1ccc2nc(CN3CC(CCN)c4ccccc43)[nH]c(=O)c2c1 (centres unmarked) [Ex. #131, 2-[1-[(6-methoxy-4-oxo-3H-quinazolin-2-yl)methyl]indolin-3-yl]ethylammonium chloride]
14.4 | – | 10.4 | COC1CCN(c2ccc3nc(CN4CCc5ccccc54)[nH]c(=O)c3c2)CC1 [Ex. #132, 2-(indolin-1-ylmethyl)-6-(4-methoxy-1-piperidyl)-3H-quinazolin-4-one]
14.5 | – | 12 | O=c1[nH]c(CN2CCc3ccccc32)nc2cc(F)ccc12 [Ex. #138, 7-fluoro-2-(indolin-1-ylmethyl)-3H-quinazolin-4-one]
14.6 | – | 9.71 | COc1ccc2c(c1)CCN2Cc1nc2ccc(Cl)cc2c(=O)[nH]1 [Ex. #144, 6-chloro-2-((5-methoxyindolin-1-yl)methyl)quinazolin-4(3H)-one]
